{"source": "paper doi:10.1101/2024.02.16.580637v1", "about": "(biorxiv, 2024)", "experiment_in_all_cases": "grating-coupled interferometry", "assay_type_in_all_cases": "binding", "settings_in_all_cases": "20 mM Tris/HCl pH 7.5, 150 mM NaCl; mass transport limitation model", "key": {"BtuG3 [1]": {"target": "T1, BtuG3 (Bacteroides thetaiotaomicron, UniProt Q8A5Z1, A261W)", "T1 sequence (Q8A5Z1 34-355 A261W)": "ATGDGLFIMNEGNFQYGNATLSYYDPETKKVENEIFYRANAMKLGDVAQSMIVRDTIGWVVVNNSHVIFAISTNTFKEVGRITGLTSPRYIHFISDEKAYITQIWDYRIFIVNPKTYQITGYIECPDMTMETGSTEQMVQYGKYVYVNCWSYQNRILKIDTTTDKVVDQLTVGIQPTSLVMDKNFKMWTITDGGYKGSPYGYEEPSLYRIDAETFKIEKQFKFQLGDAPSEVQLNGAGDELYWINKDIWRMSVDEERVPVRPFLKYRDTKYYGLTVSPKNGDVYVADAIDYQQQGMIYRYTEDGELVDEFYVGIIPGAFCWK"}, "BtuG1": {"target": "T2, BtuG1 (Bacteroides thetaiotaomicron, UniProt Q8A7N4)", "T2 sequence (Q8A7N4 28-442)": "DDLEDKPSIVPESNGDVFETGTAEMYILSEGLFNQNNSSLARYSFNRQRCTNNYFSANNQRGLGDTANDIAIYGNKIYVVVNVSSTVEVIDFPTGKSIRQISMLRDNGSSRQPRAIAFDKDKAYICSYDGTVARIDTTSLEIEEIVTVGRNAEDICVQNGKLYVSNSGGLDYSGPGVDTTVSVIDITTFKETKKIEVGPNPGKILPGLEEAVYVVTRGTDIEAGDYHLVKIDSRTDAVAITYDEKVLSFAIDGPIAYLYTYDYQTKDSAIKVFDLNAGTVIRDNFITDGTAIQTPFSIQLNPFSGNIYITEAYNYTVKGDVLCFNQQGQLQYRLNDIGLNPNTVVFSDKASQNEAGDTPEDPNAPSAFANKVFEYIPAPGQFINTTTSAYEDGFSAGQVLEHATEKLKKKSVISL"}, "BtuG3 [2]": {"target": "T3, BtuG3 (Bacteroides thetaiotaomicron, UniProt Q8A5Z1)", "T3 sequence (Q8A5Z1 34-355)": "T1 sequence (Q8A5Z1 34-355 A261W)"}, "BtuG2": {"target": "T4, BtuG2 (Bacteroides thetaiotaomicron, UniProt Q8A6D0)", "T4 sequence (Q8A6D0 47-366)": "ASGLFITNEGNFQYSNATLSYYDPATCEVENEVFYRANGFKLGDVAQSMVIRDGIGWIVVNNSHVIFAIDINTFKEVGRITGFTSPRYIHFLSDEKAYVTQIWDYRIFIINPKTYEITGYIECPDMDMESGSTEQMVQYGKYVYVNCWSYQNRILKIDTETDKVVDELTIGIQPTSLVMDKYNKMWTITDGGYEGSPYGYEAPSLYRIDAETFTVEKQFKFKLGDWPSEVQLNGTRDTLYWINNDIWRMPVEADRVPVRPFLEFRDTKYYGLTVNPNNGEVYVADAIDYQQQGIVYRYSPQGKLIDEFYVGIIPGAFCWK"}}}
{"smiles": "C/C1=C2/[N-][C@H]([C@H](CC(N)=O)[C@@]2(C)CCC(=O)NC[C@@H](C)OP(=O)([O-])O[C@H]2[C@@H](O)[C@@H](n3cnc4cc(C)c(C)cc43)O[C@@H]2CO)[C@]2(C)N=C(/C(C)=C3N=C(/C=C4N=C1[C@@H](CCC(N)=O)C\\4(C)C)[C@@H](CCC(N)=O)[C@]\\3(C)CC(N)=O)[C@@H](CCC(N)=O)[C@]2(C)CC(N)=O.[Co+3].[OH-]", "note": "[OHCbl, hydroxycobalamin]", "values": [{"measurement": "Kd", "setting": "BtuG3 [1]", "result": "1.4 · 10^-10 M"}, {"measurement": "Kd", "setting": "BtuG1", "result": "3.0 · 10^-12 M"}, {"measurement": "Kd", "setting": "BtuG3 [2]", "result": "2.8 · 10^-11 ± 3.9 · 10^-11 M"}, {"measurement": "Kd", "setting": "BtuG2", "result": "2.2 · 10^-12 M"}]}
